Assay results reported in patent publication US20040002526A1, “Phospholipase D inhibitors and uses thereof” (Cell Therapeutics, Inc., priority 2002, published 2004).

Target: T1, PLD (phospholipase D)
T1 construct: fused on or other part: N-terminal polyhistidine tag (pFastBac HTc) on either enzyme
Test: In vitro assay of PLD activity ([3H]-choline release from labelled PC)
Type: biochemical, human
Conditions: Table 3, tricyclic thiazolidinones of Formula II; PLD isoform not stated; read-out: IC50
Experimental: Recombinant PLD1 and PLD2—Human PLD1 and PLD2 were isolated from Sf9 insect cells that had been infected with recombinant baculovirus vector, pFastBac™HTc vector (Life Technologies, Gaithersburg, Md.), containing PLD1 or PLD2 cDNAs.
PLD1 activity was assayed by measuring the generation of [^3H]-choline from [choline-methyl^3H](16:0, 16:0)PC.
The assay procedure for PLD2 was similar to that for PLD1, with the exception that arf1, PKC-α, and GTPγS were omitted from the reaction mixture. After addition of enzymes, the reactions were incubated for 1 hour at room temperature. Twenty microliters of 12% trichloroacetic acid (TCA) then were added to each sample, to stop the reaction and to precipitate the unreacted [choline-methyl^3H](16:0, 16:0)PC. Thereafter, the samples were passed through 0.65 μm Millipore 96 well filter plates to removed the excess [choline-methyl^3H](16:0, 16:0)PC. For each sample the filtrate (50 μl), which contained the [^3H]-choline released by PLD cleavage of PC, was analyzed using a TopCount™ Liquid Scintillation Counter, a product of Packard (Meriden, Conn.).

Row | SMILES | IC50 [µM]
1 | Cc1cc2nc3s/c(=C\c4ccc(-c5ccc(O)c(C(=O)O)c5)o4)c(=O)n3c2cc1C [Compound 60, 5-[5-(6,7-Dimethyl-3-oxo-benzo[4,5]imidazo[2,1-b]thiazol-2-ylidenemethyl)-furan-2-yl]-2-hydroxy-benzoic acid] | 3.6
2 | Cc1cc2nc3s/c(=C/c4ccc(-c5cccc(C(=O)O)c5)o4)c(=O)n3c2cc1C [Compound 61, 3-[5-(6,7-Dimethyl-3-oxo-benzo[4,5]imidazo[2,1-b]thiazol-2-ylidenemethyl)-furan-2-yl]-benzoic acid] | 3.4
